Laboratory results taken from EP0572494B1, “COMPOSITION FOR USE IN TRANSDERMAL ADMINISTRATION” (priority 1991, dated 1992).

How the values were obtained:
[1] = according to Gruber et al; cited from earlier work
[2] = Urinary ibuprofen after topical application to shaved dorsal skin; format: in vivo, Hooded Wistar rats; settings: topically applied composition according to the invention
From the text: Four anesthetized Hooded Wistar rats were fitted with jugular and bladder catheters. […] Plastic covers were placed over the shaved area to prevent the animals ingesting the applied composition.
The animals were placed in metabolism cages and the urinary ibuprofin monitored.

[3] = Particle size distribution by microscopic examination; format: physicochemical
Method: For the purposes of this specification the particle size of the particles was determined by microscopic examination. It should be assumed that the particles are of a constant thickness. The surface area of each visible particle face should be determined, and the particle size calculated by calculating the square root of the visible surface area of each particle.
(§1) The particle size of the ibuprofen crystallites precipitated during the cooling and stirring of the above formulation was compared with that of the unreacted ibuprofen powder. The respective particle sizes were determined by microscopic examination. It was assumed that the crystals were of a constant thickness. The surface area of each crystal was then determined, and the particle size calculated by calculating the square root of the measured surface area. This value was then taken to be the length of side. The total area of the counted particles was measured and the sum of the areas of the different size ranges estimated as a percentage of the total. The results were: Table 1
as §1, with “crystals” for “ibuprofen crystallites precipitated during the cooling and stirring of the above formulation was compared with that of the unreacted ibuprofen powder. The respective particle sizes”

In the case of `CC(C)Cc1ccc(C(C)C(=O)O)cc1` (stereo not shown) [ibuprofen], the “solubility in water and conventional media” value [1] is given as “only sparingly soluble”, the absorption kinetics [2] is given as “zero order kinetics” and the “time still being excreted after topical application” value [2] is given as “more than 160 hours”.
With `O=C1O[C@H]([C@@H](O)CO)C(O)=C1O` [Unformulated Ascorbic Acid, ascorbic acid] the “Percentage Particles in Size range” value ([3]; size range 10-20µm) was 0.36 Percentage, the “Percentage Particles in Size range” value ([3]; size range 20-50µm) was 0.57 Percentage and the “Percentage Particles in Size range” value ([3]; size range 50-100µm) was 2.7 Percentage. For the same compound, the “Percentage Particles in Size range” value ([3]; size range >100µm) was 96 Percentage.
